Ends that are not written are not given here.
Tests used:
RFL-6 cells [1] = experiment: BrdUTP incorporation assay (mRNA, green fluorescence) in RFL-6 cells; type: cell-based; conditions: sub-fractions of Fraction #3 (HPLC peaks at 215 nm); Blank (Background) 30
Method: A study was performed to determine whether different peptides had different activities in promoting skin health. Elastin protein was partially digested with thermolysin and the resulting peptides (i.e., SEQ ID 1-SEQ ID 41) were applied to an HPLC column. Five fractions containing clusters of peptides were collected from the column in the 5-50 minute range. The fractions were tested for activity using a bromodeoxyuridine Triphosphate (BrdUTP) incorporation assay in RFL-6 cells. The assay measures production of mRNA involved in protein synthesis.
Fraction #3 was sub-fractionated into 10 fractions corresponding to ten major peaks identified on the HPLC (at 215 nm). Table VI below illustrates the green fluorescence intensity as a measure of increased mRNA in RFL-6 cells in response to sub-fractionated portions of Fraction #3.

RFL-6 cells [2] = experiment: Tritiated thymidine incorporation in RFL-6 cells; conditions: synthetic peptides, 24 hour incubation with RFL-6 cells
Method: Synthetic peptides were tested for their ability to stimulate incorporation of tritiated thymidine with a 24 hour incubation with RFL-6 cells.

human keratinocytes [3] = experiment: Viability of human keratinocytes (MTT); type: cell-based; conditions: 10^−4 M to 10^−8 M
Method: Human keratinocytes were obtained from surgical items and were cultivated in a monolayer until preconfluence. The 7α-hydroxy-DHEA was administered to these cultures at various concentrations in ethanolic solution (10%), each concentration being tested eight times. Controls were carried out with ethanol alone (10%). After twenty-four hours, the viability of the keratinocytes was measured by testing with MTT (3-(4,5-dimethylthiazol-2-yl)-2,5 diphenyl tetrazolium bromide) where the mitochondrial dehydrogenase succinate converts the MTT into blue crystals of formazan soluble in DMSO (Mosmann, J. Immunol. Methods 65: 55-63, 1983). The cellular viability is calculated according to the formula: % viability=DO540 product×100/DO540 control.
A value greater than 100 indicates a product that encourages cellular viability.

human keratinocytes [4] = experiment: Anti-radical effect on UVA-irradiated human keratinocytes (lipoid peroxides, chemiluminescence); type: cell-based; conditions: 10^−6 M
From the text: Keratinocytes from a healthy donor were cultivated to the subconfluent stage in a specific medium (KGM) for the proliferation of keratinocytes. The suspensions obtained were split up, in triplicate, into four series, of which three were irradiated for thirty minutes with a lamp emitting UVA so as to speed up the production of free radicals. Among the three irradiated series, one contained Vitamins C and E (0.7%) and was used as a protection reference; one contained 7α-hydroxy-DHEA at 10^−6 M and the last served as a control.
The free radicals produced generated lipoid peroxides which are measured by chemiluminescence (Belghmi et al. J Biolum. Chemilum. 2: 113-119, 1982). The effectiveness of the 7α-hydroxy-DHEA was calculated on the basis of non-irradiated controls and the protection reference.

human fibroblasts = experiment: Proliferation of human fibroblasts in culture (cell count); type: cell-based; conditions: 72 hours of contact, control 190,667 ± 6,766
Method: Cultures of human fibroblasts (from a person) were seeded on twenty-four site plates at the rate of 50,000 cells per site in a standard culture medium (DMEM, gentamycine, amphotericine B, penicillin, L-glutamine, 10% SVF). The tests were carried out on four series of three sites. After twenty-four hours, the fibroblasts adhered to the support and three series were treated with 7α-hydroxy-DHEA at concentrations of 10^−6 M, 5×10^−6 M and 10^−7 M. The fourth series only contained the vector (ethanol). The media were renewed daily, and at ninety-six hours (seventy-two hours of test contact with the 7α-hydroxy-DHEA), the fibroblasts were counted on a Malassez cell in the presence of blue trypan.

rat skin = experiment: H&E histology of treated rat skin (Example 6); type: in vivo; conditions: for Outer (keratin) layer and vascularity of the inner layer: treated skin sections; for Thickness of the dermal layer of skin: vs untreated controls (both shaven and unshaven)
Method: Rat skin was treated with 7-hydroxy DHEA and 7-hydroxy isoandrosterone. Skin cross sections were stained with hematoxylin and eosin (H&E) and examined histologically. […] The DHEA and derivatives induction of dermal thickening was reversible. A subset of experimental animals within each treatment group were left untreated for 30 days. Upon examination, treated skin sections were indistinguishable from the untreated. Concomitant toxicological studies found no significant toxicity when the compounds were used at 0.5% concentration in a suitable carrier applied twice daily (12 hour intervals) for 30 days.

[5] = In-vitro oxygen radical assay (luminol chemiluminescence, hydrogen peroxide); type: biochemical; conditions: diluted luminol pre-incubated with compound; 100 μg/ml for DHEA
Method: The ability of a compound to scavenge free radicals may implicate it as an anti-oxidizing agent. To test whether DHEA or it derivatives had the ability to capture free radicals, an in-vitro oxygen radical assay was used. The assay was run in quadruplicate to perfect the concentrations of controls as well as test the diluents (phosphate buffered saline (PBS) and DMSO) in which the DHEA and its derivatives were dissolved. The positive controls used were homocysteine and ascorbic acid (Vitamin C).

[6] = system: skins of neonatal male Sprague-Dawley rats; experiment: Elastin content of neonatal rat skin (HPLC of thermolysin-produced peptides); type: in vivo; conditions: 0.5% in carrier twice daily, 30 days; five animals per group
Method: (§1) DHEA and the derivative compounds of DHEA (the 7 hydroxy derivative and 7 hydroxy-isoandrosterone) modified the elastin and collagen contents of neonatal rat skin when applied twice daily over a 30 day period at a concentration of 0.5% in a suitable carrier.
(§2) Collagen and elastin contents were measured on dry, defatted, hair-free skin samples. Collagen contents were assessed through hydroxyproline evaluations in hydrolyzed, 0.1N hot sodium hydroxide extracts. Elastin contents were measured by HPLC evaluation of the contents of thermolysin-produced peptides in digests of the hot sodium hydroxide residue. Controls were both shaven and unshaven, the shaven receiving only the carrier twice daily.
(§3) Elastin contents were increased by all the compounds (28% for DHEA, 30% for the 7 hydroxy derivative and the 7 hydroxy-isoandrosterone). In these studies, statistical analysis of variance was significant at an alpha level of 0.01. Similar to the histological observations, these chemistries were reversible. Collagen and elastin contents returned to near normal levels after cessation of treatment for 30 days.

[7] = system: skins of neonatal male Sprague-Dawley rats; experiment: Collagen content of neonatal rat skin (hydroxyproline); type: in vivo; conditions: 0.5% in carrier twice daily, 30 days; five animals per group
Method: as §1, §2, §3

[8] = system: skin of Sprague-Dawley male rats; experiment: Elastin content of rat skin after topical treatment (Example 2); type: in vivo; conditions: topical DHEA, 5% concentration, similar time period; S CONTR 1.408, US CONTR 2.291
Method: Topical treatment of Sprague-Dawley male rats with a composition including peptides (i.e., SEQ IDs 1-41) at a concentration of about 1.3% (wt/wt) of the formulation over a one month period was performed. The rats were treated topically with a 1.3% concentration (wt/wt) of the preparation of the hydrophilic elastin peptide for a period of 30 days. […] Three animals each were used to generate the data for S CONTR, US CONT, and DHEA and eleven animals were used for HEP. Three skin samples from the treated areas of each animal were taken for study, and the three results from each animal were averaged. […] The elastin content of the skin was determined by a precise assay for rat elastin developed by Sandberg, et al. (Connective Tissue Research 25:139-48, 1990) the assay portion of which is hereby incorporated herein by reference thereto. […]
An alpha level less than 0.001 for the data as determined by analysis of variance is significant because there is less than one chance in a thousand that the findings occur by chance.

skin of treated rats = experiment: Fluorescent micrographs of skin cross-sections stained with anti-fibronectin antibodies (Example 3); type: in vivo, rat; conditions: FIG. 2C DHEA topical, FIG. 2D peptide composition
From the text: FIGS. 2A-D are fluorescent micrographs of fixed skin cross-sections taken from rats treated as described in Example 3, and stained with fluorescein-conjugated anti-fibronectin antibodies. FIG. 2A is a representative sample from the unshaven control tissue; FIG. 2B is a representative sample from the shaven control sample; FIG. 2C is a representative sample of tissue which received DHEA topical treatment; and FIG. 2D is a representative sample of tissue which received treatment of a composition containing peptides, as described in Example 2. In each of the panels, the dermal layer of the skin is indicated by a bracket.
The capillary venules are shown in this figure as brightly stained oval bodies that lie beneath the dermal layer. The increase in the concentration of endothelial cells in the subdermal region indicates an increase in capillary density and therefore illustrates the potential for the peptides and formulations of the present invention to be used for the formation of blood vessels or capillary venules (neovascularization or angiogenesis).

Valine-Glycine-Proline-Alanine [SEQ ID 14]
% Change of Green Fluorescence Intensity (RFL-6 cells [1]): 39%

Alanine-Alanine-Alanine-Glutamine-Alanine (AAAQA; listed as Homo sapiens) [SEQ ID 22]
% Change of Green Fluorescence Intensity (RFL-6 cells [1]): 20%

Acetyl-VVPQ (Ac-VVPQ; listed as Homo sapiens) [SEQ ID 43]
Tritiated thymidine incorporation, % CPM above the control (RFL-6 cells [2]): ~1 % CPM above the control

C[C@]12CC[C@H](O)CC1=C[C@@H](O)[C@@H]1[C@@H]2CC[C@]2(C)C(=O)CC[C@@H]12 [7α-hydroxy-DHEA, 3β,7α-dihydroxy-5-androstene-17-one]
Cytotoxicity on human keratinocytes (human keratinocytes [3]): no cytotoxicity was observed
Chemiluminescence (human keratinocytes [4]; UVA irradiated 30 minutes, non irradiated 2,529 ± 153, irradiated controls 427,750 ± 137,322): 44,164 ± 13,303
Effectiveness (human keratinocytes [4]; UVA irradiated, calculated on non-irradiated controls and protection reference): 90%
Number of Fibroblasts (human fibroblasts; 5 × 10^−6 M): 258,667 ± 3,351
Number of Fibroblasts (human fibroblasts; 10^−6 M): 268,000 ± 27,154
Number of Fibroblasts (human fibroblasts; 10^−7 M): 230,667 ± 8,511

Valine-Glycine-Valine-Hydroxy-proline-Glycine [SEQ ID 23]
% Change of Green Fluorescence Intensity (RFL-6 cells [1]): 57%

Acetyl-GAVVPQ--NH2 (Ac-GAVVPQ-NH2; listed as Homo sapiens) [SEQ ID 44]
Tritiated thymidine incorporation, % CPM above the control (RFL-6 cells [2]): ~5 % CPM above the control

C[C@]12CC[C@H](O)CC1=C[C@H](O)[C@@H]1[C@@H]2CC[C@]2(C)C(=O)CC[C@@H]12 [7-hydroxy DHEA]
Outer (keratin) layer and vascularity of the inner layer (rat skin): no change in the outer (keratin) layer nor increase of vascularity of the inner layer
Thickness of the dermal layer of skin (rat skin): thickened to nearly twice that of the untreated controls
Reduction of luminol light emission [5]: did not cause any reduction
Elastin contents increased by [6]: 30%
Collagen increased by [7]: 24%

Valine-Valine-Proline-Glutamine [SEQ ID 17]
Tritiated thymidine incorporation, % CPM above the control (RFL-6 cells [2]): ~28 % CPM above the control
% Change of Green Fluorescence Intensity (RFL-6 cells [1]): 85%

GAVVPQ--NH2 (GAVVPQ-NH2; listed as Homo sapiens) [SEQ ID 48]
Tritiated thymidine incorporation, % CPM above the control (RFL-6 cells [2]): ~25 % CPM above the control

C[C@]12CC[C@H](O)C[C@@H]1CC(O)[C@@H]1[C@@H]2CC[C@]2(C)C(=O)CC[C@@H]12 (some centres unmarked) [7-hydroxy isoandrosterone]
Outer (keratin) layer and vascularity of the inner layer (rat skin): no change in the outer (keratin) layer nor increase of vascularity of the inner layer
Thickness of the dermal layer of skin (rat skin): thickened to nearly twice that of the untreated controls
Reduction of luminol light emission [5]: 15%
Elastin contents increased by [6]: 30%
Collagen increased by [7]: 24%

Leucine-Glycine-Alanine-Glycine-Glycine-Alanine-Glycine [SEQ ID 19]
Tritiated thymidine incorporation, % CPM above the control (RFL-6 cells [2]): ~18 % CPM above the control

Valine-Tyrosine-Proline-Glycine-Glycine [SEQ ID 24]
% Change of Green Fluorescence Intensity (RFL-6 cells [1]): 38%

Valine-Valine-Proline-Glutamine-Amide [SEQ ID 42]
Tritiated thymidine incorporation, % CPM above the control (RFL-6 cells [2]): ~1 % CPM above the control

C[C@]12CC[C@H](O)CC1=CC[C@@H]1[C@@H]2CC[C@]2(C)C(=O)CC[C@@H]12 [DHEA, 3β-hydroxy-5-androstene-17-one, reference compound]
Elastin content of the skin (mean) [8]: 1.753 μg Elastin per mg Skin Fat Fre
Reduction of luminol light emission [5]: 20%
Elastin contents increased by [6]: 28%
Dermal layer of control skin (FIGS. 2A and B) compared to treated skin (FIGS. 2C and D) (skin of treated rats): thin compared to the thickness of the dermal layers in FIGS. 2C and D
Collagen decrease [7]: 16%

Reference: US7666842B2, “Elastin peptide analogs and uses thereof” (Connective Tissue Imagineering, LLC, priority 1998, dated 2010)
